According to patent US10072026B2, “Crystalline form of 3-((1R,3s,5S)-3-((7-((5-methyl-1H-pyrazol-3-yl)amino)-1,6-naphthyridin-5-yl)amino)-8-azabicyclo[3.2.1]octan-8-yl)propanenitrile” (priority 2015, dated 2018):

Legend:
[1] = molecular target: JAK1 (Homo sapiens (Human), UniProt P23458); experiment: LanthaScreen JAK biochemical assay (JAK1)
[2] = molecular target: JAK2 (Homo sapiens (Human), UniProt O60674); experiment: LanthaScreen JAK biochemical assay (JAK2)
[3] = tested on: IL-4 induced STAT6 phosphorylation in THP-1 human monocytic cells; experiment: Cellular JAK potency assay, THP-1
[4] = tested on: IL-13 induced STAT6 phosphorylation in BEAS-2B human lung epithelial cells; experiment: AlphaScreen cellular JAK potency assay, BEAS-2B
[5] = THP-1 cells, IL-4 induced STAT6 phosphorylation
[6] = BEAS-2B cells, IL-13 induced STAT6 phosphorylation
[7] = IL-4 induced STAT6 phosphorylation, THP-1 cells
[8] = IL-13 induced STAT6 phosphorylation, BEAS-2B cells

Sequence of JAK1 (P23458 whole entry): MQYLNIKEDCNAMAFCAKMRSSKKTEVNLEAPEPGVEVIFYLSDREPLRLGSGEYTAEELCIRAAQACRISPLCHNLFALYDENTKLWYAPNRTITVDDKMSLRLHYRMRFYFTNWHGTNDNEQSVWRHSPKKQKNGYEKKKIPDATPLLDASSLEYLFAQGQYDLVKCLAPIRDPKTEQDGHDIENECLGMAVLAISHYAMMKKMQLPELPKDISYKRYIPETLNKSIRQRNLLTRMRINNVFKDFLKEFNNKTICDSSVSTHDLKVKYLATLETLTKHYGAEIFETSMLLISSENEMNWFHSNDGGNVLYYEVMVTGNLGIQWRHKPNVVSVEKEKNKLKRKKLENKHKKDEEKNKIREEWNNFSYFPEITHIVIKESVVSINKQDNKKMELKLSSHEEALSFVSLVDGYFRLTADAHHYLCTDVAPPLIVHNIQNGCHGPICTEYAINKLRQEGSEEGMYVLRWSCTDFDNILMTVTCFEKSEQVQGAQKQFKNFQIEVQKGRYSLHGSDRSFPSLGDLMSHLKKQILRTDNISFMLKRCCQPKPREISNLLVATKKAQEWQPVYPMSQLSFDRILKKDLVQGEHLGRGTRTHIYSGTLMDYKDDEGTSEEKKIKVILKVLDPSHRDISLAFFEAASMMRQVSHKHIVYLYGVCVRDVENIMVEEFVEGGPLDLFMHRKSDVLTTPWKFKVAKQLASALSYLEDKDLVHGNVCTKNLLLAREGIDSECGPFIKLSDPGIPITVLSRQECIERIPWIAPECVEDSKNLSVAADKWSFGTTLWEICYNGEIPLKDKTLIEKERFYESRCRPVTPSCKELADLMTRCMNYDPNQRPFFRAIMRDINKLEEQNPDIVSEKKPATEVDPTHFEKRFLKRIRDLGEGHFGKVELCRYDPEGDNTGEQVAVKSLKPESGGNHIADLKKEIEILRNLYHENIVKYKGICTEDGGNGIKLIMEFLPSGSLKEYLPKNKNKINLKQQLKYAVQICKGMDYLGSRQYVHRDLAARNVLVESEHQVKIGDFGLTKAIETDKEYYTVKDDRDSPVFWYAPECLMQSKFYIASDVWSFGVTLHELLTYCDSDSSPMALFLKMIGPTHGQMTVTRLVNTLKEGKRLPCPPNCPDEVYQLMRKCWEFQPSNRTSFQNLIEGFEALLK
Sequence of JAK2 (O60674 whole entry): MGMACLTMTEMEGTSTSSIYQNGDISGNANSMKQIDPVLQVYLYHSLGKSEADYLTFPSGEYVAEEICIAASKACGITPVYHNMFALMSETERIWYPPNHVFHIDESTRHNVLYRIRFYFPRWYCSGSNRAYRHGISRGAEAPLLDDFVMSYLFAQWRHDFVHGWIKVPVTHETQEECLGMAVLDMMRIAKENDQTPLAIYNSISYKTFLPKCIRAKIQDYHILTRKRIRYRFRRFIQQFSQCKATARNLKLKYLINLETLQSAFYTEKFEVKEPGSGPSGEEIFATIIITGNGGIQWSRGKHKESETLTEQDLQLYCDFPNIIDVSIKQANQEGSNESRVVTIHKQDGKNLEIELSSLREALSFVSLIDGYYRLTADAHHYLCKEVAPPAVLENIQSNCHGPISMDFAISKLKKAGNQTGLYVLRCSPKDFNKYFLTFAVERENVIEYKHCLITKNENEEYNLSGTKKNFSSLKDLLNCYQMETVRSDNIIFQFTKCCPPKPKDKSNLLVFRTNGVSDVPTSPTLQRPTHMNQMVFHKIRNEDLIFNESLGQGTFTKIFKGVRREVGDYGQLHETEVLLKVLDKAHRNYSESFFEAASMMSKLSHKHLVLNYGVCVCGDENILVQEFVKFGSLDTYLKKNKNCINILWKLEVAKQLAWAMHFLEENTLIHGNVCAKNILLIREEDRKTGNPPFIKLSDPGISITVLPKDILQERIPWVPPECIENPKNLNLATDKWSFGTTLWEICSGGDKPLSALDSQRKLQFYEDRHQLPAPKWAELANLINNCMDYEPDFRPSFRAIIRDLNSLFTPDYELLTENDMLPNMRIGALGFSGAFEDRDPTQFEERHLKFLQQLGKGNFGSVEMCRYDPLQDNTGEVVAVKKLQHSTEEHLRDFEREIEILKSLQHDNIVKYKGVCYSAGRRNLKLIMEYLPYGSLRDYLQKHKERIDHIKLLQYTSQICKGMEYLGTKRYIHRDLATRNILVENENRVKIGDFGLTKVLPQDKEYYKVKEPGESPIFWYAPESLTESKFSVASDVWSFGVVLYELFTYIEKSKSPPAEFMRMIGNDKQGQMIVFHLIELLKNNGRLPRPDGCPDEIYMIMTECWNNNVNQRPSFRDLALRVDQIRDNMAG

Row | SMILES | JAK 1 (pKi) [1] | JAK 2 (pKi) [2] | THP-1 IL4 pIC50 [3, 5] | BEAS2B pIC50 [4, 6] | BEAS2B pIC50 [4, 8] | also measured
1 | Cc1cnc2cc(Nc3cc(C)[nH]n3)nc(N[C@@H]3C[C@H]4CC[C@@H](C3)N4Cc3ccncc3)c2c1 [Example 6-2] | B (B represents a pKi value between 9 and 10 (Ki between 1 nM and 0.1 nM)) | B (B represents a pKi value between 9 and 10 (Ki between 1 nM and 0.1 nM)) | A (A represents a pEC50 value≥7.5 (EC50≤32 nM)) | B (B represents a pEC50 value between 6.7 and 7.5 (EC50 between 200 nM and 32 nM)) |  | 
2 | Cc1cc(Nc2cc3ncc(S(C)(=O)=O)cc3c(N[C@@H]3C[C@H]4CC[C@@H](C3)N4Cc3ccncc3)n2)n[nH]1 [Example 6-59] |  | A (A represents a pKi value≥10 (Ki≤0.1 nM)) |  | C (C represents a pEC50 value<6.7 (EC50>200 nM)) |  | 
3 | COc1ccnc2cc(Nc3cc(C)[nH]n3)nc(N[C@@H]3C[C@H]4CC[C@@H](C3)N4CC(F)(F)F)c12 [Example 7-9] |  |  |  |  |  | Ki [1]: 0.1 to 1 nM; Ki ([2]; read-out: JAK 2 (pKi) (converted)): 0.1 to 1 nM; IC50 ([3]; Homo sapiens, THP-1, read-out: THP-1 IL4 pIC50 (converted)): < 31.6 nM; IC50 ([4]; Homo sapiens, BEAS-2B, read-out: BEAS2B pIC50 (converted)): < 31.6 nM
4 | Cc1cnc2c(F)c(Nc3cc(C)[nH]n3)nc(N[C@@H]3C[C@H]4CCC[C@@H](C3)N4S(C)(=O)=O)c2c1 [Example 8-22] | B (B represents a pKi value between 9 and 10 (Ki between 1 nM and 0.1 nM)) | B (B represents a pKi value between 9 and 10 (Ki between 1 nM and 0.1 nM)) | B (B represents a pEC50 value between 6.7 and 7.5 (EC50 between 200 nM and 32 nM)) | B (B represents a pEC50 value between 6.7 and 7.5 (EC50 between 200 nM and 32 nM)) |  | 
5 | Cc1cc(Nc2cc3ncccc3c(N[C@@H]3C[C@H]4CCC[C@@H](C3)N4C(=O)c3ccccc3)n2)n[nH]1 [Example 2-25] |  | A (A represents a pKi value≥10 (Ki≤0.1 nM)) |  |  | A (A represents a pEC50 value≥7.5 (EC50≤32 nM)) | THP-1 IL4 pIC50 [3, 7]: A (A represents a pEC50 value≥7.5 (EC50≤32 nM))
6 | CCC1(S(=O)(=O)N2[C@@H]3CCC[C@H]2C[C@H](Nc2nc(Nc4cc(C)[nH]n4)cc4ncccc24)C3)CC1 [Example 4-20] |  | A (A represents a pKi value≥10 (Ki≤0.1 nM)) |  |  | A (A represents a pEC50 value≥7.5 (EC50≤32 nM)) | THP-1 IL4 pIC50 [3, 7]: A (A represents a pEC50 value≥7.5 (EC50≤32 nM))
7 | CCC(C)OC(=O)N1[C@@H]2CCC[C@H]1C[C@H](Nc1nc(Nc3cc(C)[nH]n3)cc3ncccc13)C2 (stereo partly drawn) [Example 3-12] | B (B represents a pKi value between 9 and 10 (Ki between 1 nM and 0.1 nM)) | B (B represents a pKi value between 9 and 10 (Ki between 1 nM and 0.1 nM)) |  |  | B (B represents a pEC50 value between 6.7 and 7.5 (EC50 between 200 nM and 32 nM)) | 
8 | Cc1cc(Nc2nc(N[C@@H]3C[C@H]4CC[C@@H](C3)N4Cc3ccncc3)c3cccnc3c2F)n[nH]1 [Example 8-6] | B (B represents a pKi value between 9 and 10 (Ki between 1 nM and 0.1 nM)) | B (B represents a pKi value between 9 and 10 (Ki between 1 nM and 0.1 nM)) | B (B represents a pEC50 value between 6.7 and 7.5 (EC50 between 200 nM and 32 nM)) | B (B represents a pEC50 value between 6.7 and 7.5 (EC50 between 200 nM and 32 nM)) |  | 
9 | Cc1cnc2cc(Nc3cc(C)[nH]n3)nc(N[C@@H]3C[C@H]4CCC[C@@H](C3)N4S(=O)(=O)N3CC(C#N)C3)c2c1 [Example 6-9] |  | A (A represents a pKi value≥10 (Ki≤0.1 nM)) | A (A represents a pEC50 value≥7.5 (EC50≤32 nM)) | A (A represents a pEC50 value≥7.5 (EC50≤32 nM)) |  | 
10 | Cc1cc(Nc2cc3ncccc3c(N[C@@H]3C[C@H]4CCC[C@@H](C3)N4C(=O)c3ccnc(C#N)c3)n2)n[nH]1 [Example 2-30] | B (B represents a pKi value between 9 and 10 (Ki between 1 nM and 0.1 nM)) | B (B represents a pKi value between 9 and 10 (Ki between 1 nM and 0.1 nM)) |  |  | C (C represents a pEC50 value<6.7 (EC50>200 nM)) | 
11 | CCC(C)C(=O)N1[C@@H]2CC[C@H]1C[C@H](Nc1nc(Nc3cc(C)[nH]n3)cc3nccc(OC)c13)C2 (stereo partly drawn) [Example 7-4] | B (B represents a pKi value between 9 and 10 (Ki between 1 nM and 0.1 nM)) |  | B (B represents a pEC50 value between 6.7 and 7.5 (EC50 between 200 nM and 32 nM)) | B (B represents a pEC50 value between 6.7 and 7.5 (EC50 between 200 nM and 32 nM)) |  | 
12 | Cc1cc(Nc2cc3ncccc3c(N[C@@H]3C[C@H]4CCC[C@@H](C3)N4C(=O)CCC(C)C)n2)n[nH]1 [Example 2-31] | B (B represents a pKi value between 9 and 10 (Ki between 1 nM and 0.1 nM)) | B (B represents a pKi value between 9 and 10 (Ki between 1 nM and 0.1 nM)) |  |  | B (B represents a pEC50 value between 6.7 and 7.5 (EC50 between 200 nM and 32 nM)) | 
13 | Cc1cc(Nc2cc3ncccc3c(N[C@@H]3C[C@H]4CCC[C@@H](C3)N4S(=O)(=O)N3CCC3)n2)n[nH]1 [Example 4-29] | A (A represents a pKi value≥10 (Ki≤0.1 nM)) |  |  |  | A (A represents a pEC50 value≥7.5 (EC50≤32 nM)) | THP-1 IL4 pIC50 [3, 7]: A (A represents a pEC50 value≥7.5 (EC50≤32 nM))
14 | Cc1cc(Nc2cc3nc(CN4CCOCC4)ccc3c(N[C@@H]3C[C@H]4CCC[C@@H](C3)N4S(=O)(=O)c3cncc(F)c3)n2)n[nH]1 [Example 5-30] |  | A (A represents a pKi value≥10 (Ki≤0.1 nM)) |  |  | A (A represents a pEC50 value≥7.5 (EC50≤32 nM)) | THP-1 IL4 pIC50 [3, 7]: A (A represents a pEC50 value≥7.5 (EC50≤32 nM))
15 | Cc1cc(Nc2cc3ncccc3c(N[C@@H]3C[C@H]4CCC[C@@H](C3)N4Cc3cccnc3)n2)n[nH]1 [Example 1-47] |  | A (A represents a pKi value≥10 (Ki≤0.1 nM)) |  |  | A (A represents a pEC50 value≥7.5 (EC50≤32 nM)) | THP-1 IL4 pIC50 [3, 7]: A (A represents a pEC50 value≥7.5 (EC50≤32 nM))
16 | Cc1cc(Nc2cc3ncc(S(C)(=O)=O)cc3c(N[C@@H]3C[C@H]4CCC[C@@H](C3)N4Cc3ccncc3)n2)n[nH]1 [Example 6-60] | A (A represents a pKi value≥10 (Ki≤0.1 nM)) | A (A represents a pKi value≥10 (Ki≤0.1 nM)) |  | B (B represents a pEC50 value between 6.7 and 7.5 (EC50 between 200 nM and 32 nM)) |  | 
17 | Cc1cc(Nc2cc3ncccc3c(N[C@@H]3C[C@H]4CCC[C@@H](C3)N4C(=O)c3cncc(C#N)c3)n2)n[nH]1 [Example 2-26] | B (B represents a pKi value between 9 and 10 (Ki between 1 nM and 0.1 nM)) | B (B represents a pKi value between 9 and 10 (Ki between 1 nM and 0.1 nM)) |  |  | C (C represents a pEC50 value<6.7 (EC50>200 nM)) | 
18 | COc1cnc2cc(Nc3cc(C)[nH]n3)nc(N[C@@H]3C[C@H]4CC[C@@H](C3)N4CCCF)c2c1 [Example 6-16] | B (B represents a pKi value between 9 and 10 (Ki between 1 nM and 0.1 nM)) |  | B (B represents a pEC50 value between 6.7 and 7.5 (EC50 between 200 nM and 32 nM)) | B (B represents a pEC50 value between 6.7 and 7.5 (EC50 between 200 nM and 32 nM)) |  | 
19 | COC(=O)c1cnc2cc(Nc3cc(C)[nH]n3)nc(N[C@@H]3C[C@H]4CC[C@@H](C3)N4CC(=O)OC(C)C)c2c1 [Example 6-41] |  | B (B represents a pKi value between 9 and 10 (Ki between 1 nM and 0.1 nM)) | A (A represents a pEC50 value≥7.5 (EC50≤32 nM)) | B (B represents a pEC50 value between 6.7 and 7.5 (EC50 between 200 nM and 32 nM)) |  | 
